From US10596168B2, “Antagonists of the thyroid-stimulating hormone receptor (TSHR)” (Forschungsverbund Berlin e.V., priority 2016, dated 2020)

Target: T1, TSHR (Homo sapiens, UniProt P16473)
T1 construct: expressed in transfected cells
Experiment: cAMP accumulation radioimmunoassay (RIA), inhibition of TSH-induced cAMP production in HEK-293 cells stably expressing TSHR
Assay type: cell-based
Design: antagonistic activity (% inhibition): concentration or dose not given beside the values
Conditions: inhibiting cAMP stimulation by TSH, radioimmunoassay
Experimental: HEK-293 cells stably expressing TSHR, FSHR, LHGCR or CRF1R were cultured for 48 h and stimulated for 1 h at 37° C. with stimulation buffer (DMEM supplemented with 10 mM HEPES, 0.5% BSA, 0.25 mM 3-isobutyl-1-methylxanthine) containing the ligands as indicated. After stimulation medium was aspirated and reactions were stopped by lysis of the cells with 0.1% trifluoroacetic acid, 0.005% Triton X-100 for 30 min at 4° C. Supernatants were collected and heated at 95° C. for 10 min, dried in a rotation vacuum concentrator (Alpha-RCV, Christ) and finally stored at −20° C. until use. After reconstitution and acetylation of the samples (Jäschke et al. 2006), the cAMP content was determined using cAMP-^125I-tyrosyl methyl ester (10,000 cpm, IBL) and polyclonal rabbit anti cAMP antibodies. The radioactivity of the precipitate was determined in a γ-counter.
For the Secondary Screening cAMP accumulation was measured by radioimmunoassay (RIA) in HEK-293-TSHR cells as described before.
For the secondary screening we used a very sensitive in vitro technique, the radioimmunoassay. This assay was established and performed in HEK-293 cell line stably expressing TSHR.
Therefore RIA was used to measure the cAMP accumulation upon stimulation with TSH (EC80 value) and confirmed the desired effect for S4 and S9 with a clear decrease of cAMP production.

T1 sequence (P16473 21-764): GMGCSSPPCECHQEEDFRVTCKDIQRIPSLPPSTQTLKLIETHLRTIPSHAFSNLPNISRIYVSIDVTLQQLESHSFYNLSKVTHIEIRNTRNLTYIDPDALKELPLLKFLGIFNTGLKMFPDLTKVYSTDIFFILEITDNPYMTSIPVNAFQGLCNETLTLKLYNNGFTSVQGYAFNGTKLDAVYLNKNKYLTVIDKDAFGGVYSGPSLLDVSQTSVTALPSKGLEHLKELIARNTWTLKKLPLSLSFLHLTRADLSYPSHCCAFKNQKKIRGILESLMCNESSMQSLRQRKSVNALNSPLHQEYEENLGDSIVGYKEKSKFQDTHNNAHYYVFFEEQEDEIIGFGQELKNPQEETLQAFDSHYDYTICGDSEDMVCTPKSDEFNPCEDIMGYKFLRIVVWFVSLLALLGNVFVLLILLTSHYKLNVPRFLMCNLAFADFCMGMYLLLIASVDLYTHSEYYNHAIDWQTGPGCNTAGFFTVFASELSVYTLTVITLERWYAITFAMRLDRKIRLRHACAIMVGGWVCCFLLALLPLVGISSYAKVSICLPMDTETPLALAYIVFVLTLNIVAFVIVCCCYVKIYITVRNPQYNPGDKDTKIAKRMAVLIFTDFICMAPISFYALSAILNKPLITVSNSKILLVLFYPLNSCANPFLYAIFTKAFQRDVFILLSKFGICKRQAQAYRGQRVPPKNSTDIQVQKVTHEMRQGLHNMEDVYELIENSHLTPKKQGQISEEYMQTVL

Row | SMILES | antagonistic activity (% inhibition)
1 | COC(=O)c1cccc(N2C(=O)[C@@H]3[C@H]4C[C@H]([C@@H]5Sc6[nH]c(=O)sc6[C@@H](c6ccccc6)[C@H]45)[C@@H]3C2=O)c1 (racemic) [Compound S96, methyl 3-((4aR,5R,5aS,8aS,9S,9aR,10S)-2,6,8-trioxo-10-phenyl-3,4a,5,5a,6,8,8a,9,9a,10-decahydro-5,9-methanothiazolo[5′,4′:5,6]thiopyrano[2,3-f]isoindol-7(2H)-yl)benzoate compound with methyl 3-((4aS,5S,5aR,8aR,9R,9aS,10R)-2,6,8-trioxo-10-phenyl-3,4a,5,5a,6,8,8a,9,9a,10-decahydro-5,9-methanothiazolo[5′,4′:5,6]thiopyrano[2,3-f]isoindol-7(2H)-yl)benzoate (1:1)] | 34%
2 | O=C1[C@@H]2[C@H]3C[C@H]([C@@H]4Sc5[nH]c(=O)sc5[C@@H](c5cccc(O)c5)[C@H]34)[C@@H]2C(=O)N1c1ccccc1 (racemic) [Compound S125, (4aR,5R,5aS,8aS,9S,9aR,10S)-10-(3-hydroxyphenyl)-7-phenyl-3,4a,5,5a,8a,9,9a,10-octahydro-5,9-methanothiazolo[5′,4′:5,6]thiopyrano[2,3-f]isoindole-2,6,8(7H)-trione compound with (4aS,5S,5aR,8aR,9R,9aS,10R)-10-(3-hydroxyphenyl)-7-phenyl-3,4a,5,5a,8a,9,9a,10-octahydro-5,9-methanothiazolo[5′,4′:5,6]thiopyrano[2,3-f]isoindole-2,6,8(7H)-trione (1:1)] | 34%
3 | Cc1ccc(N2C(=O)C3C4CC(C3C2=O)C2C(c3ccc(N(C)C)cc3)c3sc(=O)[nH]c3SC42)cc1 (centres unmarked) [Compound S18] | 30%
4 | O=C1C2C3CC(C2C(=O)N1c1cccc(C(F)(F)F)c1)C1C(c2ccccc2)c2sc(=O)[nH]c2SC31 (centres unmarked) [Compound S21] | 55%
5 | O=C1C2C3C=CC(C3)C2C(=O)N1c1ccc(N2CCOCC2)c([N+](=O)[O-])c1 (centres unmarked) [Compound S26] | 35%
6 | CCOC(=O)N1CCN(c2ncc(N3C(=O)C4C(C3=O)[C@H]3C=C[C@@H]4C3)cc2[N+](=O)[O-])CC1 (some centres unmarked) [Compound S34] | 30%
7 | CCOC(=O)N1CCN(c2ncc(N3C(=O)[C@@H]4[C@H](C3=O)[C@H]3C=C[C@@H]4C3)cc2[N+](=O)[O-])CC1 [Compound S35] | 15%
8 | CN1CCN(c2ccc(N3C(=O)[C@@H]4[C@H]5C[C@H]([C@@H]6Sc7[nH]c(=O)sc7[C@@H](c7ccccc7)[C@H]56)[C@@H]4C3=O)cc2[N+](=O)[O-])CC1 [Compound S38, (4aS,5S,5aR,8aR,9R,9aS,10R)-7-(4-(4-methylpiperazin-1-yl)-3-nitrophenyl)-10-phenyl-3,4a,5,5a,8a,9,9a,10-octahydro-5,9-methanothiazolo[5′,4′:5,6]thiopyrano[2,3-f]isoindole-2,6,8(7H)-trione] | 40%

Now from value to compound:

Row | antagonistic activity (% inhibition) | SMILES
9 | 29% | Nc1ccc(N2C(=O)[C@@H]3[C@H]4C[C@H]([C@@H]5Sc6[nH]c(=O)sc6[C@@H](c6ccccc6)[C@H]45)[C@@H]3C2=O)cc1 (racemic) [Compound S79, (4aR,5R,5aS,8aS,9S,9aR,10S)-7-(4-aminophenyl)-10-phenyl-3,4a,5,5a,8a,9,9a,10-octahydro-5,9-methanothiazolo[5′,4′:5,6]thiopyrano[2,3-f]isoindole-2,6,8(7H)-trione Compound with (4aS,5S,5aR,8aR,9R,9aS,10R)-7-(4-aminophenyl)-10-phenyl-3,4a,5,5a,8a,9,9a,10-octahydro-5,9-methanothiazolo[5′,4′:5,6]thiopyrano[2,3-t]isoindole-2,6,8(7H)-trione (1:1)]
10 | 25% | CC(=O)c1ccc(N2C(=O)[C@@H]3[C@H]4C[C@H]([C@@H]5Sc6[nH]c(=O)sc6[C@@H](c6ccccc6)[C@H]45)[C@@H]3C2=O)cc1 (racemic) [Compound S80, (4aR,5R,5aS,8aS,9S,9aR,10S)-7-(4-acetylphenyl)-10-phenyl-3,4a,5,5a,8a,9,9a,10-octahydro-5,9-methanothiazolo[5′,4′:5,6]thiopyrano[2,3-f]isoindole-2,6,8(7H)-trione Compound with (4aS,5S,5aR,8aR,9R,9aS,10R)-7-(4-acetylphenyl)-10-phenyl-3,4a,5,5a,8a,9,9a,10-octahydro-5,9-methanothiazolo[5′,4′:5,6]thiopyrano[2,3-f]isoindole-2,6,8(7H)-trione (1:1)]
11 | 29% | COC(=O)c1ccc(N2C(=O)[C@@H]3[C@H]4C[C@H]([C@@H]5Sc6[nH]c(=O)sc6[C@@H](c6ccccc6)[C@H]45)[C@@H]3C2=O)cc1 (racemic) [Compound S87, methyl 4-((4aR,5R,5aS,8aS,9S,9aR,10S)-2,6,8-trioxo-10-phenyl-3,4a,5,5a,6,8,8a,9,9a,10-decahydro-5,9-methanothiazolo[5′,4′:5,6]thiopyrano[2,3-f]isoindol-7(2H)-yl)benzoate compound with methyl 4-((4aS,5S,5aR,8aR,9R,9aS,10R)-2,6,8-trioxo-10-phenyl-3,4a,5,5a,6,8,8a,9,9a,10-decahydro-5,9-methanothiazolo[5′,4′:5,6]thiopyrano[2,3-f]isoindol-7(2H)-yl)benzoate (1:1)]
12 | 22% | COc1ccc(N2C(=O)[C@@H]3[C@H]4C[C@H]([C@@H]5Sc6[nH]c(=O)sc6[C@@H](c6ccccc6)[C@H]45)[C@@H]3C2=O)cc1 (racemic) [Compound S89, (4aR,5R,5aS,8aS,9S,9aR,10S)-7-(4-methoxyphenyl)-10-phenyl-3,4a,5,5a,8a,9,9a,10-octahydro-5,9-methanothiazolo[5′,4′:5,6]thiopyrano[2,3-t]isoindole-2,6,8(7H)-trione compound with (4aS,5S,5aR,8aR,9R,9aS,10R)-7-(4-methoxyphenyl)-10-phenyl-3,4a,5,5a,8a,9,9a,10-octahydro-5,9-methanothiazolo[5′,4′:5,6]thiopyrano[2,3-t]isoindole-2,6,8(7H)-trione (1:1)]
13 | 53% | Cc1ccc(N2C(=O)[C@@H]3[C@H]4C[C@H]([C@@H]5Sc6[nH]c(=O)sc6[C@@H](c6ccccc6)[C@H]45)[C@@H]3C2=O)cc1 (racemic) [Compound S90, (4aR,5R,5aS,8aS,9S,9aR,10S)-10-phenyl-7-(p-tolyl)-3,4a,5,5a,8a,9,9a,10-octahydro-5,9-methanothiazolo[5′,4′:5,6]thiopyrano[2,3-f]isoindole-2,6,8(7H)-trione Compound with (4aS,5S,5aR,8aR,9R,9aS,10R)-10-phenyl-7-(p-tolyl)-3,4a,5,5a,8a,9,9a,10-octahydro-5,9-methanothiazolo[5′,4′:5,6]thiopyrano[2,3-f]isoindole-2,6,8(7H)-trione (1:1)]
14 | 34% | O=C1[C@@H]2[C@H]3C[C@H]([C@@H]4Sc5[nH]c(=O)sc5[C@@H](c5ccccc5)[C@H]34)[C@@H]2C(=O)N1c1ccc(O)cc1 (racemic) [Compound S100, (4aR,5R,5aS,8aS,9S,9aR,10S)-7-(4-hydroxyphenyl)-10-phenyl-3,4a,5,5a,8a,9,9a,10-octahydro-5,9-methanothiazolo[5′,4′:5,6]thiopyrano[2,3-f]isoindole-2,6,8(7H)-trione compound with (4aS,5S,5aR,8aR,9R,9aS,10R)-7-(4-hydroxyphenyl)-10-phenyl-3,4a,5,5a,8a,9,9a,10-octahydro-5,9-methanothiazolo[5′,4′:5,6]thiopyrano[2,3-f]isoindole-2,6,8(7H)-trione (1:1)]
15 | 38% | O=C1[C@@H]2[C@H]3C[C@H]([C@@H]4Sc5[nH]c(=O)sc5[C@@H](c5ccc(O)cc5)[C@H]34)[C@@H]2C(=O)N1c1ccccc1 (racemic) [Compound S122, (4aR,5R,5aS,8aS,9S,9aR,10S)-10-(4-hydroxyphenyl)-7-phenyl-3,4a,5,5a,8a,9,9a,10-octahydro-5,9-methanothiazolo[5′,4′:5,6]thiopyrano[2,3-f]isoindole-2,6,8(7H)-trione compound with (4aS,5S,5aR,8aR,9R,9aS,10R)-10-(4-hydroxyphenyl)-7-phenyl-3,4a,5,5a,8a,9,9a,10-octahydro-5,9-methanothiazolo[5′,4′:5,6]thiopyrano[2,3-f]isoindole-2,6,8(7H)-trione (1:1)]
16 | 22% | O=C1[C@@H]2[C@H]3C[C@H]([C@@H]4Sc5[nH]c(=O)sc5[C@@H](c5ccc(F)cc5)[C@H]34)[C@@H]2C(=O)N1c1ccccc1 (racemic) [Compound S124, (4aR,5R,5aS,8aS,9S,9aR,10S)-10-(4-fluorophenyl)-7-phenyl-3,4a,5,5a,8a,9,9a,10-octahydro-5,9-methanothiazolo[5′,4′:5,6]thiopyrano[2,3-f]isoindole-2,6,8(7H)-trione compound with (4aS,5S,5aR,8aR,9R,9aS,10R)-10-(4-fluorophenyl)-7-phenyl-3,4a,5,5a,8a,9,9a,10-octahydro-5,9-methanothiazolo[5′,4′:5,6]thiopyrano[2,3-f]isoindole-2,6,8(7H)-trione (1:1)]
17 | 50% | O=C1C2C3CC(C2C(=O)N1c1ccccc1)C1C(c2ccc(O)cc2)c2sc(=O)[nH]c2SC31 (centres unmarked) [Compound S19]
